Values of other authors in patent publication US6235268A, “Antiplaque oral composition and method” (Colgate-Palmolive Company, priority 2000, dated 2001).

System: rats
Conditions: Merck Index, Eleventh Ed., 1989

For COc1ccc(C(=O)c2ccccc2)c(O)c1 [2-hydroxy-4-methoxybenzophenone], the “LD-50 (oral/rats)” value is given as 12800 mg/kg.
